Usually EC50 stands for the concentration giving half of the maximal effect. A word on the Ki: it is a dissociation constant, usually derived from enzyme kinetics or from competition with a known ligand.

Assay [1] concerns IL-12 induced pSTAT4 (Tyk2-pSTAT4). Briefly: IL-12 Induced pSTAT4 in human PBMC. The assay is classed as cell-based. To be noted: IL-12 1.7 ng/mL. On the procedure:
IL-12 Induced pSTAT4 in human PBMC. Human PBMC are isolated from buffy coat and are stored frozen for assays as needed. Cells for assay are thawed and resuspended in complete media containing serum, then cells are diluted to 1.67 E6 cells/ml so that 120 μl per well is 200,000 cells. 15 μl of compound or DMSO is added to the well at the desired concentrations and incubated at 1 hr at 37 C. 15 μl of stimulus (final concentration of 1.7 ng/mL IL-12) is added for 30 minutes prior to pSTAT4 and total STAT4 analysis using cell lysates prepared and analyzed by MSD reagents as per manufacturer protocol. The final DMSO concentration of compound in the assay is 0.1%.
(§1) The compound numbers correspond to the compound numbers in Table 1. Compounds having an activity designated as “A” provided an EC50≤2 μM; compounds having an activity designated as “B” provided a EC50 of 2-20 μM, and compounds having an activity designated as “C” provided an EC50>20 μM.

For the next assay, the target named is JAK2 (Homo sapiens (Human), UniProt O60674). In words: JAK2 activity inhibition assay (radioactive kinase / Caliper assay). It counts as biochemical.
JAK2, sequence (O60674 whole entry): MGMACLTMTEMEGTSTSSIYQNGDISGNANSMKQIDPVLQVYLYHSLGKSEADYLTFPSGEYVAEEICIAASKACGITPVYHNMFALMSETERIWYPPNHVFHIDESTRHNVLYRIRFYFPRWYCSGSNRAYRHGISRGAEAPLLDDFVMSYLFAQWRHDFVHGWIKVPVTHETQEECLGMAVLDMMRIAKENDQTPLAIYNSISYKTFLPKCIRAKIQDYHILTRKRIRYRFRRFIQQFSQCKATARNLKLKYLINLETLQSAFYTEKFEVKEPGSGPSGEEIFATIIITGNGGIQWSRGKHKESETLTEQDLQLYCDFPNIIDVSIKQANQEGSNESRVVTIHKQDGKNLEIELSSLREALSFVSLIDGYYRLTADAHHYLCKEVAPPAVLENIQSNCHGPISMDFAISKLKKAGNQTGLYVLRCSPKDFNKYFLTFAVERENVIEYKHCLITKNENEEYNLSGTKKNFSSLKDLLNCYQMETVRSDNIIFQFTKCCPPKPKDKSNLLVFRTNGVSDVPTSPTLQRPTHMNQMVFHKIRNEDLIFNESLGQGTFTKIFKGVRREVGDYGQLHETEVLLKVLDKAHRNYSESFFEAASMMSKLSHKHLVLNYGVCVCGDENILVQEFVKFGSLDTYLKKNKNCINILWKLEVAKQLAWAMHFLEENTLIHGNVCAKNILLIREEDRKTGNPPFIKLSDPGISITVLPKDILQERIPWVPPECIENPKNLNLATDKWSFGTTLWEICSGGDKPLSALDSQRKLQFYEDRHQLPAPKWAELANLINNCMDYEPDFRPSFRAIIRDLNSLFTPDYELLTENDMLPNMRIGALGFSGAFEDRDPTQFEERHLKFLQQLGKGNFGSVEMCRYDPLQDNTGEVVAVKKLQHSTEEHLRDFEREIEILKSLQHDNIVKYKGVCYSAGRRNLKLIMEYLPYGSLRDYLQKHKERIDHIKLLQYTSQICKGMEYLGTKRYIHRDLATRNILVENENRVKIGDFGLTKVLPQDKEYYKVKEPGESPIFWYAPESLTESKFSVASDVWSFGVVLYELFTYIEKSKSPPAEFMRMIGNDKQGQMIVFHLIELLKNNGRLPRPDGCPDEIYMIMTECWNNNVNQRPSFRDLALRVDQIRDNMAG
Assay [2] has as its system GM-CSF induced pSTAT5 (JAK2-pSTAT5). In words: GM-CSF Induced pSTAT5 in human PBMC. The assay is classed as cell-based. To be noted: GM-CSF 5 ng/mL. As to the method:
GM-CSF Induced pSTAT5 in human PBMC. Cells are prepared for analysis as in the above procedure and 15 μl of GM-CSF (final concentration 5 ng/mL) is added for 20 minutes prior to pSTAT5 and total STAT5 analysis using cell lysates prepared and analyzed by MSD reagents as per manufacturer protocol. The final DMSO concentration of compound in the assay is 0.1%.
as §1

A further assay deals with TYK2 (Homo sapiens (Human), UniProt P29597). Briefly: Tyk2 activity inhibition assay (radioactive kinase / Caliper assay). The assay is classed as biochemical.
TYK2, sequence (P29597 whole entry): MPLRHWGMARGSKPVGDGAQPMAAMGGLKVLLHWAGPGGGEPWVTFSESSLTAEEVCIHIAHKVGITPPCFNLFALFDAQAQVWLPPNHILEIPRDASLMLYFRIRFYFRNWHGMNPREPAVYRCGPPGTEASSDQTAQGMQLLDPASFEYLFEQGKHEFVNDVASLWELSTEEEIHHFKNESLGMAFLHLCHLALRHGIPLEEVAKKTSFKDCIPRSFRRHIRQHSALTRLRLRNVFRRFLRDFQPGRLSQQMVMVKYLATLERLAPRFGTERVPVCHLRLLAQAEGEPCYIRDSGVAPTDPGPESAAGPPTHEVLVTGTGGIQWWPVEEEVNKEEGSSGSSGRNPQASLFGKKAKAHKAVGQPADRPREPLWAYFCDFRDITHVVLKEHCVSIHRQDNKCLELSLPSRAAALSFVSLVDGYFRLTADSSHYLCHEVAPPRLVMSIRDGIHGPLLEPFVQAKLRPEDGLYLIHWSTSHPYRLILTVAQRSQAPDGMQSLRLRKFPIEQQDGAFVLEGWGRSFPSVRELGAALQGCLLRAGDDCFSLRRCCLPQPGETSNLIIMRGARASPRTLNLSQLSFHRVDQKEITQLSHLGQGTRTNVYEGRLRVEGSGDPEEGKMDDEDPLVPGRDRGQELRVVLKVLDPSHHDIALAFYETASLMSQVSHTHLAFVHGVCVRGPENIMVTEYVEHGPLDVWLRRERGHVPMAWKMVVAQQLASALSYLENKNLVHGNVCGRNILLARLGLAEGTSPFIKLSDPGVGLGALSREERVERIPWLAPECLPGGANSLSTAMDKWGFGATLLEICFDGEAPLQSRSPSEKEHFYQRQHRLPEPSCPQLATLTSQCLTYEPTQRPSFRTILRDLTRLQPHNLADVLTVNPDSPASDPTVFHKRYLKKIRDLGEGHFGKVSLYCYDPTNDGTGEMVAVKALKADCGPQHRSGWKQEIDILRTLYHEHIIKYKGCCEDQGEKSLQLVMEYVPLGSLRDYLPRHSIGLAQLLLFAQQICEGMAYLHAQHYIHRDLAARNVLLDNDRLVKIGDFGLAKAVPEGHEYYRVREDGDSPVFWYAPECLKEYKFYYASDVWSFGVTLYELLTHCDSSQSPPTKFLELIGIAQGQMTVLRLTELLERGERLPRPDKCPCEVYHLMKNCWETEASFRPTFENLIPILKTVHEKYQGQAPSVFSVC

As for `O=C1NCc2nc(-c3c(F)cccc3F)cc(Nc3ccc(N4C[C@H]5CC[C@@H](C4)O5)cn3)c21` [Compound I-4, 4-((5-((1R,5S)-8-oxa-3-azabicyclo[3.2.1]octan-3-yl)pyridin-2-yl)amino)-2-(2,6-difluorophenyl)-6,7-dihydro-5H-pyrrolo[3,4-b]pyridin-5-one], the EC50 in assay [1] and in assay [2] was no more than 2000 nM in each case. Also, the Ki was 10 to 100 nM on JAK2 and no more than 10 nM on TYK2.

Turning to `O=C1NCc2nc(-c3c(F)cccc3F)cc(Nc3ccc(N4CCC5(CCO5)CC4)cn3)c21` [Compound I-25, 4-((5-(1-oxa-7-azaspiro[3.5]nonan-7-yl)pyridin-2-yl)amino)-2-(2,6-difluorophenyl)-6,7-dihydro-5H-pyrrolo[3,4-b]pyridin-5-one], the EC50 is no more than 2000 nM in assay [1] and 2000 to 20000 nM in assay [2]. Besides, the Ki at JAK2 was 10 to 100 nM; at TYK2, no more than 10 nM.

Regarding `N#Cc1cccc(F)c1-c1cc(Nc2ccc(N3CCC4(CC(O)CO4)C3)cn2)c2c(n1)CNC2=O` (stereo in doubt) [Compound I-89, 3-fluoro-2-(4-((5-((3S,5R)-3-hydroxy-1-oxa-7-azaspiro[4.4]nonan-7-yl)pyridin-2-yl)amino)-5-oxo-6,7-dihydro-5H-pyrrolo[3,4-b]pyridin-2-yl)benzonitrile], the EC50 in assay [1] and in assay [2] was no more than 2000 nM each time. Further, the Ki on JAK2 and on TYK2 was no more than 10 nM in each case.

As for `N#Cc1cc(F)c(-c2cc(Nc3ccc(N4CCC5(CC4)CC5)cn3)c3c(n2)CNC3=O)c(F)c1` [Compound I-60, 4-(4-((5-(6-azaspiro[2.5]octan-6-yl)pyridin-2-yl)amino)-5-oxo-6,7-dihydro-5H-pyrrolo[3,4-b]pyridin-2-yl)-3,5-difluorobenzonitrile], the EC50 in assay [1] was no more than 2000 nM; in assay [2] it was 2000 to 20000 nM. Also, the figures for the Ki at JAK2 and on TYK2 were 10 to 100 nM and no more than 10 nM, respectively.

`O=C1CCOc2cc(Nc3cc(-c4c(F)cccc4F)nc4c3C(=O)NC4)ccc21` [Compound I-72, 2-(2,6-difluorophenyl)-4-((4-oxochroman-7-yl)amino)-6,7-dihy-dro-5H-pyrrolo[3,4-b]pyridin-5-one]: the EC50 in assay [1] and in assay [2] was greater than 20000 nM throughout. Moreover, the Ki was no less than 1000 nM on JAK2 and 10 to 100 nM on TYK2.

As to `CCNC(=O)C(C)(C)c1ccc(Nc2cc(-c3c(F)cccc3F)nc3c2C(=O)NC3)cc1` [Compound I-67, 2-(4-((2-(2,6-difluorophenyl)-5-oxo-6,7-dihydro-5H-pyrrolo[3,4-b]pyridin-4-yl)amino)phenyl)-N-ethyl-2-methylpropanamide], the EC50 in assay [1] is no more than 2000 nM; in assay [2], 2000 to 20000 nM. Moreover, the Ki on JAK2 and on TYK2 was no more than 10 nM each time.

Turning to `O=C1NCc2nc(-c3c(F)cccc3F)cc(Nc3ccc(N4CCOC45COC5)cn3)c21` [Compound I-65, 4-((5-(2,5-dioxa-8-azaspiro[3.4]octan-8-yl)pyridin-2-yl)amino)-2-(2,6-difluorophenyl)-6,7-dihydro-5H-pyrrolo[3,4-b]pyridin-5-one], the EC50 in assay [1] is no more than 2000 nM; in assay [2] it was 2000 to 20000 nM. The Ki at JAK2 and at TYK2 was no more than 10 nM throughout.

In the case of `CC1(C)CNc2cc(Nc3nc(-c4c(F)cccc4F)nc4c3C(=O)NC4)ccc21` [Compound I-2, 2-(2,6-difluorophenyl)-4-((3,3-dimethylindolin-6-yl)amino)-6,7-dihydro-5H-pyrrolo[3,4-d]pyrimidin-5-one], the figures for the EC50 in assay [1] and in assay [2] were no more than 2000 nM and 2000 to 20000 nM, respectively. Besides, the Ki was 10 to 100 nM at JAK2 and no more than 10 nM on TYK2.

In the case of `O=C1NCc2nc(-c3c(F)cccc3F)cc(Nc3ccc4c(n3)NCCCO4)c21` [Compound I-18, 2-(2,6-difluorophenyl)-4-((2,3,4,5-tetrahydropyrido[3,2-b][1,4]oxazepin-7-yl)amino)-6,7-dihydro-5H-pyrrolo[3,4-b]pyridin-5-one], the EC50 in assay [1] is no more than 2000 nM; in assay [2] it was 2000 to 20000 nM. Also, the results for the Ki on JAK2 and at TYK2 were 10 to 100 nM and no more than 10 nM, respectively.

Take `N#Cc1cccc(F)c1-c1cc(Nc2ccc(N3CCC4(C[C@H](O)CO4)C3)cn2)c2c(n1)CNC2=O` (stereo in doubt) [Compound I-93, 3-fluoro-2-(4-((5-((3S,5R)-3-hydroxy-1-oxa-7-azaspiro[4.4]nonan-7-yl)pyridin-2-yl)amino)-5-oxo-6,7-dihydro-5H-pyrrolo[3,4-b]pyridin-2-yl)benzonitrile]: the EC50 is no more than 2000 nM in assay [1] and 2000 to 20000 nM in assay [2]. The Ki on JAK2 is 10 to 100 nM; on TYK2, no more than 10 nM.

With `O=C1NCc2c1c(Nc1ccc(C(=O)N3CCOCC3)cc1)cc(-c1c(F)cccc1F)[n+]2[O-]` [Compound I-84, 2-(2,6-difluorophenyl)-4-((4-(morpholine-4-carbonyl)phenyl)-amino)-5-oxo-6,7-dihydro-5H-pyrrolo[3,4-b]pyridine 1-oxide], the EC50 in assay [1] and in assay [2] was greater than 20000 nM each time. Further, the Ki on JAK2 was no less than 1000 nM; at TYK2, 10 to 100 nM.

`O=C1NCc2nc(-c3c(F)cccc3F)cc(Nc3ccc(N4CCC5(CC4)OCCO5)cn3)c21` [Compound I-62, 4-((5-(1,4-dioxa-8-azaspiro[4.5]decan-8-yl)pyridin-2-yl)amino)-2-(2,6-difluorophenyl)-6,7-dihydro-5H-pyrrolo[3,4-b]pyridin-5-one]: the EC50 in assay [1] and in assay [2] was no more than 2000 nM each time. The Ki on JAK2 is 10 to 100 nM; on TYK2, no more than 10 nM.

Turning to `N#Cc1cccc(F)c1-c1cc(Nc2ccc(N3CCC4(C[C@H](O)CO4)C3)cn2)c2c(n1)CNC2=O` (stereo in doubt) [Compound I-91, 3-fluoro-2-(4-((5-((3S,5S)-3-hydroxy-1-oxa-7-azaspiro[4.4]nonan-7-yl)pyridin-2-yl)amino)-5-oxo-6,7-dihydro-5H-pyrrolo[3,4-b]pyridin-2-yl)benzonitrile], the EC50 in assay [1] and in assay [2] was no more than 2000 nM each time. Also, the Ki at JAK2 and at TYK2 was no more than 10 nM throughout.

As to `O=C1NCc2nc(-c3c(F)cccc3F)cc(Nc3ccc(N4CCCC5(CCO5)C4)cn3)c21` (stereo not shown) [Compound I-36, 4-((5-(1-oxa-6-azaspiro[3.5]nonan-6-yl)pyridin-2-yl)amino)-2-(2,6-difluorophenyl)-6,7-dihydro-5H-pyrrolo[3,4-b]pyridin-5-one], the EC50 in assay [1] was no more than 2000 nM; in assay [2] it was 2000 to 20000 nM. Also, the Ki at JAK2 is 10 to 100 nM; at TYK2, no more than 10 nM.

Take `O=C1NCc2nc(-c3c(F)cccc3F)cc(Nc3ccc(N4C[C@H]5COC[C@H]5C4)cn3)c21` [Compound I-59, 2-(2,6-difluorophenyl)-4-((5-((3aR,6aS)-tetrahydro-1H-furo[3,4-c]pyrrol-5(3H)-yl)pyridin-2-yl)amino)-6,7-dihydro-5H-pyrrolo[3,4-b]pyridin-5-one]: the EC50 in assay [1] is no more than 2000 nM; in assay [2], 2000 to 20000 nM. The Ki on JAK2 was 10 to 100 nM; at TYK2, no more than 10 nM.

In the case of `CC1(C)CNc2nc(Nc3cc(-c4c(F)cccc4F)nc4c3C(=O)NC4)ccc21` [Compound I-10, 2-(2,6-difluorophenyl)-4-((3,3-dimethyl-2,3-dihydro-1H-pyrrolo[2,3-b]pyridin-6-yl)amino)-6,7-dihydro-5H-pyrrolo[3,4-b]pyridin-5-one], the EC50 in assay [1] and in assay [2] was no more than 2000 nM in each case. Also, the Ki is 10 to 100 nM on JAK2 and no more than 10 nM at TYK2.

In the case of `O=C1NCc2nc(-c3c(F)cccc3F)cc(Nc3ccc(N4CCC5(CC4)CC5)cn3)c21` [Compound I-20, 4-((5-(6-azaspiro[2.5]octan-6-yl)pyridin-2-yl)amino)-2-(2,6-difluorophenyl)-6,7-dihydro-5H-pyrrolo[3,4-b]pyridin-5-one], the EC50 in assay [1] is no more than 2000 nM; in assay [2], greater than 20000 nM. Further, the Ki on JAK2 is 10 to 100 nM; at TYK2, no more than 10 nM.

For `O=C1NCc2nc(-c3c(F)cccc3F)nc(Nc3ccc4c(c3)NCC4)c21` [Compound I-1, 2-(2,6-difluorophenyl)-4-(indolin-6-ylamino)-6,7-dihydro-5H-pyrrolo[3,4-d]pyrimidin-5-one], the EC50 in assay [1] was no more than 2000 nM; in assay [2], 2000 to 20000 nM. For the same compound, the Ki on JAK2 is 100 to 1000 nM; at TYK2 it was no more than 10 nM.

With `N#Cc1cccc(F)c1-c1cc(Nc2ccc(N3CC[C@@]4(C[C@@H](O)CO4)C3)cn2)c2c(n1)CNC2=O` [Compound I-88, 3-fluoro-2-(4-((5-((3R,5R)-3-hydroxy-1-oxa-7-azaspiro[4.4]nonan-7-yl)pyridin-2-yl)amino)-5-oxo-6,7-dihydro-5H-pyrrolo[3,4-b]pyridin-2-yl)benzonitrile], the EC50 in assay [1] and in assay [2] was no more than 2000 nM each time. Further, the Ki on JAK2 and on TYK2 was no more than 10 nM each time.

The record behind these values is patent US10968236B2, “TYK2 inhibitors and uses thereof” (Nimbus Lakshmi, Inc., priority 2015, dated 2021).
